Source: article PMC10033409, “Autoregulation of GPCR signalling through the third intracellular loop” (Nature, 2023)
Several values for one entry are separate records, joined by “and”; a condition that tells them apart may be missing. Equal values may be shown once.

Columns and labels:
PTH1R–Gq peptide = assay: PTH1R-luciferase complementation reporter assay, Gq peptide; type: biochemical, human; conditions: PTH1R construct named by the receptor or protein whose sequence replaces ICL3 (WT = wild-type); Y axis of Figure 5G
Protocol: For PTH1R luciferase complementation reporter assays, cells were seeded the day prior to transfection at 25-30% confluence on 12-well plates. For each transfection, 0.5 μg DNA, 1.5 μl X-tremeGENE HP, and 100 μl Opti-MEM were combined, incubated for 15-20 min, and added to seeded wells. For each mutant, PTH1R-Gs peptide, PTH1R-Gq peptide and PTH1R-(no peptide) constructs were transfected in parallel. Spep and Qpep constructs were transfected 24 h prior to collection, and no-peptide constructs were transfected 18 h before collection. […] Media in each well was used to gently shear and resuspend the cells by pipetting. The cell mixture was centrifuged (3 min, 300g) and the media was aspirated. Cell pellet was resuspended in 1 ml PBS and centrifuged again as above. […] Cellular debris was removed by centrifugation (1,000g for 1 min). To collect additional vesicles, debris was resuspended in 0.3 ml PBS, briefly vortexed, and centrifuged again (1,000g for 1 min). The ~0.9 ml of combined decanted supernatant was centrifuged one additional time (1,000g for 2 min) to better remove cellular debris. […] Vesicle samples were collected in a 96-well clear bottom plate and assayed for TagRFP fluorescence (Tecan Spark, excitation 521 nm, emission 585 nm, gain 150). For each set of constructs for a given […] ([…] control), samples were diluted to the lowest TagRFP counts. […] The plate was tapped 2-3 times to mix, and the kinetic read was resumed. Moving averages were computed for each kinetic trace (3-point averages for 5 min equilibration, 8-point moving averages post-drug treatment). Each kinetic trace was normalized to the last point of the pre-drug equilibration. The maximum luminescence value that appeared stable over time was used for further analysis. Specific Spep and Qpep signals were calculated by subtracting the control value from the Spep value and the Qpep value for a given experiment.

PTH1R–Gs peptide = assay: PTH1R-luciferase complementation reporter assay, Gs peptide; type: biochemical, human; conditions: PTH1R construct named by the receptor or protein whose sequence replaces ICL3 (WT = wild-type); X axis of Figure 5G
Protocol: For PTH1R luciferase complementation reporter assays, cells were seeded the day prior to transfection at 25–30% confluence on 12-well plates. For each transfection, 0.5 µg DNA, 1.5 µl X-tremeGENE HP, and 100 µl Opti-MEM were combined, incubated for 15–20 min, and added to seeded wells. […] Spep and Qpep constructs were transfected 24 h prior to collection, and no-peptide constructs were transfected 18 h before collection.
Expressed PTH1R-luciferase complementation constructs were vesiculated as previously described, with modifications for smaller sample volume[25]. Media in each well was used to gently shear and resuspend the cells by pipetting. The cell mixture was centrifuged (3 min, 300g) and the media was aspirated. Cell pellet was resuspended in 1 ml PBS and centrifuged again as above. Cells were resuspended again in 0.6 ml vesiculation buffer (10 mM HEPES pH 7.4, 150 mM NaCl, 20 mM CaCl2, 2 µg ml^−1 aprotinin, 2 µg ml^−1 leupeptin, 2 mM N-ethylmaleimide) and incubated at 30 °C with shaking at 180 rpm for 2 h. Cellular debris was removed by centrifugation (1,000g for 1 min). To collect additional vesicles, debris was resuspended in 0.3 ml PBS, briefly vortexed, and centrifuged again (1,000g for 1 min). The ~0.9 ml of combined decanted supernatant was centrifuged one additional time (1,000g for 2 min) to better remove cellular debris. Vesicles were collected by centrifugation (3,200g for 40 min at 4 °C) and washed in 0.5 ml assay buffer. Centrifugation step was repeated, and vesicles were resuspended in 0.1 ml assay buffer.
45 µl of each sample was transferred to an opaque 96-well flat bottom plate. 45 µl of Nano-Glo Substrate (Promega N1110) diluted 1:50 in assay buffer was added to each well in the new plate. After tapping the plate to collect liquid at the bottom of the well, a kinetic luminescence read was started (500 ms integration, continuous for 40 min) and luminescence signal was tracked. […] The plate was tapped 2–3 times to mix, and the kinetic read was resumed. Moving averages were computed for each kinetic trace (3-point averages for 5 min equilibration, 8-point moving averages post-drug treatment). Each kinetic trace was normalized to the last point of the pre-drug equilibration. The maximum luminescence value that appeared stable over time was used for further analysis. Specific Spep and Qpep signals were calculated by subtracting the control value from the Spep value and the Qpep value for a given experiment.

CB1R [1] = molecular target: T1, CB1R (Mus musculus, UniProt P47746); assay: cAMP accumulation, CB1R; type: cell-based, murine; conditions: CB1R Wild-Type; saturating agonist concentration; 500 µM IBMX
T1 construct: expressed in transfected cells; host or cells: transfected cells (HEK 293T for the β2AR assay)
Protocol: (§1) One millilitre of medium was removed from each well containing transfected cells. The remaining volume was used to gently shear and resuspend the cells by pipetting. The cell mixture was centrifuged (3 min, 300g) and media was removed using a vacuum manifold. […] . The cells were washed once by repeating this procedure.
(§2) For all other second messenger assays, expression level and cell density of each condition was estimated through fluorescence. […] Cells were resuspended at 350,000 ± 30,000 fluorescence counts at a wavelength representing optical density of the sample (excitation 430 nm/emission 450 nm), corresponding with 2 × 10^6 ± 5 × 10^5 cells per m^l. This was confirmed by counting the cells on a haemocytometer (Countess II). The following metrics were assessed for optimal expression: mCerulean peak emission (excitation 430 nm/475 nm):optical density emission (excitation 430 nm/emission 450 nm) of 2.0 ± 0.3 and mCitrine peak emission (excitation 490 nm/emission 525 nm):mCerulean peak emission (excitation 430 nm/emission 475 nm) of 2.0 ± 0.2.
(§3) Resuspended cells were added 1:1 with a 2× concentration of ligand (10 µl final) into an opaque 384-well flat bottom plate (Greiner Bio-One). […] . for FSK inhibition assays with β-ARs, 100 µM metoprolol was used. […] Luminescence was measured on a Tecan Spark plate reader (500 ms integration, one measurement per well).

CB1R [2] = molecular target: T2, CB1R (Mus musculus, UniProt P47746, DEL312-328); assay: cAMP accumulation, CB1R; type: cell-based, murine; conditions: CB1R ∆ICL3; saturating agonist concentration; 500 µM IBMX
T2 construct: expressed in transfected cells; host or cells: transfected cells (HEK 293T for the β2AR assay)
Protocol: as §1, §2, §3

CB1R [3] = molecular target: T1, CB1R; assay: InsP1 accumulation, CB1R; type: cell-based, murine; conditions: CB1R Wild-Type; saturating agonist concentration
Protocol: (§4) One millilitre of medium was removed from each well containing transfected cells. The remaining volume was used to gently shear and resuspend the cells by pipetting. The cell mixture was centrifuged (3 min, 300g) and media was removed using a vacuum manifold. […] The cells were washed once by repeating this procedure.
as §2
(§5) Resuspended cells were added 1:1 with a 2× concentration of ligand (70 µl final) into an opaque 96-well U-bottom plate (Greiner Bio-One). […] Plates were incubated at 37 °C for 2 h to stimulate InsP1 production. […] FRET ratio for each reading was calculated as the ratio of acceptor emission to donor emission. […]

CB1R [4] = molecular target: T2, CB1R; assay: InsP1 accumulation, CB1R; type: cell-based, murine; conditions: CB1R ∆ICL3; saturating agonist concentration
Protocol: as §4, §2, §5

A1R [5] = molecular target: T3, A1R (Homo sapiens, UniProt P30542); assay: InsP1 accumulation, A1R; type: cell-based; conditions: AA1R Wild-Type; saturating agonist concentration
T3 sequence (P30542 1-326): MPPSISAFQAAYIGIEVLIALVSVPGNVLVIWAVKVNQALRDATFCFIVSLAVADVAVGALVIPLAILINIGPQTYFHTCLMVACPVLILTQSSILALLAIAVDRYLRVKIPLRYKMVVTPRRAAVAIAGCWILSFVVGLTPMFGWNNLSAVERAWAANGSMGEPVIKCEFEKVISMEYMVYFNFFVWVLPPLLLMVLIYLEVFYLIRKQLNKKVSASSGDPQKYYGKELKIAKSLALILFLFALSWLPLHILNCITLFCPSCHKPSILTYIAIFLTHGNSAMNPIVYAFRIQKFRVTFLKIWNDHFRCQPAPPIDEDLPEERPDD
Description: (§6) For all other second messenger assays, expression level and cell density of each condition was estimated through fluorescence. Fluorescence spectra for mCerulean (Horiba Fluoromax 4, excitation 430 nm, emission scan 450–600 nm, bandpass 4 nm) and mCitrine (Horiba Fluoromax 4, excitation 490 nm, emission scan 500–600 nm, bandpass 4 nm) were acquired for each condition. Cells were resuspended at 350,000 ± 30,000 fluorescence counts at a wavelength representing optical density of the sample (excitation 430 nm/emission 450 nm), corresponding with 2 × 10^6 ± 5 × 10^5 cells per m^l. […]
(§7) Resuspended cells were added 1:1 with a 2× concentration of ligand (70 µl final) into an opaque 96-well U-bottom plate (Greiner Bio-One). […] FRET ratio for each reading was calculated as the ratio of acceptor emission to donor emission. InsP1 signal for a drug and transfection combination was calculated as the average FRET ratio of a given transfection condition without drug treatment subtracted from the average FRET ratio of a of a given transfection condition with drug treatment.

A1R [6] = molecular target: T4, A1R (Homo sapiens, UniProt P30542, DEL216-222); assay: InsP1 accumulation, A1R; type: cell-based; conditions: AA1R ∆ICL3; saturating agonist concentration
T4 construct: expressed in transfected cells; host or cells: transfected cells (HEK 293T for the β2AR assay)
T4 sequence (P30542 with tags, fused parts or gaps DEL216-222): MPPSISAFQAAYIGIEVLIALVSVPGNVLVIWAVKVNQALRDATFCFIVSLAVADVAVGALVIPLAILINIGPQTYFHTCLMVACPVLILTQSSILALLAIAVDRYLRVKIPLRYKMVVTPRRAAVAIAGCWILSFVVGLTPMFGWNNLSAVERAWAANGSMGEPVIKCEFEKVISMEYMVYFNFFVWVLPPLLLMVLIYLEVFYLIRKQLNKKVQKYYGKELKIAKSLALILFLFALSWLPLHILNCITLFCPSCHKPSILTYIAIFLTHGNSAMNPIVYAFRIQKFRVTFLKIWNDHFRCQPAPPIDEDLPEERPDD
Description: as §6, §7

A1R [7] = molecular target: T3, A1R; assay: cAMP accumulation, A1R; type: cell-based; conditions: AA1R Wild-Type; saturating agonist concentration; 500 µM IBMX
Protocol: as §1, §2, §3

A1R [8] = molecular target: T4, A1R; assay: cAMP accumulation, A1R; type: cell-based; conditions: AA1R ∆ICL3; saturating agonist concentration; 500 µM IBMX
Protocol: as §1, §2, §3

[9] = test system: β2AR–Gs peptide FRET sensor; assay: ∆FRET assay, β2AR–Gs peptide SPASM FRET sensor; conditions: wild-type β2AR–Gs peptide sensor
[10] = molecular target: β2AR–Gs peptide FRET sensor (Homo sapiens, UniProt P07550, DEL236-257); assay: ∆FRET assay, β2AR–Gs peptide SPASM FRET sensor; conditions: β2AR(∆ICL3)–Gs peptide sensor
[11] = molecular target: β2AR ICL3 FRET sensor, β2AR(L258Azi/Y350Azi/∆351–413) (Homo sapiens, UniProt P07550, L258F/Y350F); assay: Time-correlated single photon counting FRET assay, β2AR ICL3 FRET sensor (AZDye488/AZDye546)
Protocol: Cell membranes were prepared following the procedure in ‘Crude cell membrane extracts’ through the first ultracentrifugation step (135,000g, 25 min, 4 °C). […] Solution was homogenized, first by passing through a 1 ml micropipette 10 times, then passing through a 20-gauge needle 10 times. To initiate the reaction, sodium ascorbate (50 mM) was added to the mixture and mixed by pipetting (2 ml final volume). Reactions were incubated with mild shaking (500 rpm) for 30 min at 25 °C.
For conditions without drug, peptide or nanobody, an equivalent volume of assay buffer was added. Reactions were equilibrated for 5 min prior to reading. […] Time-resolved fluorescence decay data were fit to the equation: Decay=α1e^−t/τ^1+α2e^−t/τ^2+α3e^−t/τ^3
Amplitude-weighted average lifetimes (τavg) were calculated from the three-exponential decay equation: τavg=(α1τ1+α2τ2+α3τ3)/(α1+α2+α3)
Each condition was performed in technical duplicate or triplicate, depending on sensor yield.

β2AR [12] = molecular target: β2AR (Homo sapiens, UniProt P07550); conditions: wild-type β2AR; presence of Gq peptide
Protocol: (§8) Reactions were equilibrated, washed, and measured following the same procedure listed above for the radioligand antagonist-binding assay. […] Weighted averages of these IC50 values were used for comparison purposes and inhibition constant (Ki) calculations. […] Binding assays were performed in technical duplicates. Three biological replicates were collected with different membrane preparations for each replicate.

β2AR [13] = conditions: β2AR(∆ICL3); presence of Gq peptide
Protocol: as §8

β2AR [14] = assay: cAMP accumulation (cAMP-Glo), β2AR; type: cell-based, human; conditions: Extended Data Figure 6B
β2AR–mCerulean = β2AR–mCerulean (Homo sapiens, UniProt P07550, DEL236-262); conditions: ∆ICL3 β2AR–mCerulean; 10 µM biotinylated Gq peptide, 100 µM isoproterenol; single experiments 1-4
Protocol: Bio-Spep/Bio-Qpep (10 µM final) was added to the reaction mixture (300 µl final) and equilibrated on ice for 30 min. […] To the remaining 200 µl, 20 µl of 0.4 mg ml^−1 streptavidin-coated magnetic beads were added to the reaction mixture, equilibrated for 5 min at ambient temperature, and precipitated using a neodymium disc magnet N52 (20 × 40 mm). Fluorescence spectra was taken of the remaining supernatant in duplicate.

β2AR L258Azi (Δ350-413) = molecular target: T5, β2AR L258Azi (Δ350-413) (Homo sapiens, UniProt P07550, L258F); assay: Time-correlated single photon counting, other sensor designs and dye-only controls (mNeonGreen/Cy3, TagRFP/AZDye488, free dyes); type: biochemical; conditions: Extended Data Figure 4L
T5 construct: HA; mNeonGreen, TagRFP or SNAP (differs by sensor design); expressed in transfected cells; host or cells: crude membrane extracts of transfected cells (HEK293), co-transfected with pIRE4-Azi
Protocol: Solution was homogenized, first by passing through a 1 ml micropipette 10 times, then passing through a 20-gauge needle 10 times. To initiate the reaction, sodium ascorbate (50 mM) was added to the mixture and mixed by pipetting (2 ml final volume). Reactions were incubated with mild shaking (500 rpm) for 30 min at 25 °C. […] For conditions without drug, peptide or nanobody, an equivalent volume of assay buffer was added. Reactions were equilibrated for 5 min prior to reading.

[15] = Extended Data Figure 6I, replicates 1-4
[16] = β2AR wild-type and ICL3 alanine mutants, replicates N 1-6, some omitted from analysis

T2 sequence (P47746 with tags, fused parts or gaps DEL312-328): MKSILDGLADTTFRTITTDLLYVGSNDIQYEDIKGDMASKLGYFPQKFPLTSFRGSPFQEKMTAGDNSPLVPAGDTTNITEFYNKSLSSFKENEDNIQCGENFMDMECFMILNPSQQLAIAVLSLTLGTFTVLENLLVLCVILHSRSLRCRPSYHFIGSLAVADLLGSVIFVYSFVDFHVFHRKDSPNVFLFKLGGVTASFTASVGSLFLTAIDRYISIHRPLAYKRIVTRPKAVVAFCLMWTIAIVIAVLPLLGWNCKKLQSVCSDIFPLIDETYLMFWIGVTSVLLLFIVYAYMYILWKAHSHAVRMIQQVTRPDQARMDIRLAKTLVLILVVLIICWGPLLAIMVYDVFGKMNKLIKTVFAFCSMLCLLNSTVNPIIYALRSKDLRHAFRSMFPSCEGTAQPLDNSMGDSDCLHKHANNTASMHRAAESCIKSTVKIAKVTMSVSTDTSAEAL
T1 sequence (P47746 whole entry): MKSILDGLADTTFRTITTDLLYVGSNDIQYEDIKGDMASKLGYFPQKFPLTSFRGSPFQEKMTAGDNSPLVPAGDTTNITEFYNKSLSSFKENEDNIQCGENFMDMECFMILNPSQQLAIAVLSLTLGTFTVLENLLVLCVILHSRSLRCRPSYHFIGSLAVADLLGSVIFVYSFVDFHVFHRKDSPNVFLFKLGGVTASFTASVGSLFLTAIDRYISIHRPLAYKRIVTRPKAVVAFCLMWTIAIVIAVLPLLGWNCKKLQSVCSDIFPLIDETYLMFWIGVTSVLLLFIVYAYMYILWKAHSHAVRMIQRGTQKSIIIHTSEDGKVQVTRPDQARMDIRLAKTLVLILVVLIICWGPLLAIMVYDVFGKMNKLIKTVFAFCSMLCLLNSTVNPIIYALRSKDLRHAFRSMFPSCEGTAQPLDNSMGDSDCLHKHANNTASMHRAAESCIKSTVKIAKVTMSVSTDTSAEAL

5HT1D
Specific Peptide Signal, Gq (Average) (PTH1R–Gq peptide): -0.15 | Specific Peptide Signal, Gs (Average) (PTH1R–Gs peptide): 0.24

5HT2A
Specific Peptide Signal, Gq (Average) (PTH1R–Gq peptide): 0.0157 | Specific Peptide Signal, Gs (Average) (PTH1R–Gs peptide): 0.37

CCCCC/C=C\C/C=C\C/C=C\C/C=C\CCCC(=O)OC(CO)CO [2-Arachidonoylglycerol]
cAMP (AU), Average (CB1R [1]): 0.05 AU | cAMP (AU), Average (CB1R [2]): 0.16 AU | IP1 (AU), Average (CB1R [3]): 0.14 AU | IP1 (AU), Average (CB1R [4]): 0.27 AU

OC[C@H]1O[C@@H](n2cnc3c(NC4CCCC4)ncnc32)[C@H](O)[C@@H]1O [N^6-cyclopentyladenosine]
IP1 (AU), Average (A1R [5]): 0.15 AU | IP1 (AU), Average (A1R [6]): 0.0652 AU | cAMP (AU), Average (A1R [7]): -0.0258 AU | cAMP (AU), Average (A1R [8]): 0.0561 AU

ADRB1
Specific Peptide Signal, Gq (Average) (PTH1R–Gq peptide): 0.0635 | Specific Peptide Signal, Gs (Average) (PTH1R–Gs peptide): 0.47

CNR2
Specific Peptide Signal, Gq (Average) (PTH1R–Gq peptide): 0.16 | Specific Peptide Signal, Gs (Average) (PTH1R–Gs peptide): 0.55

DTENIRFVFAAVKDTILQLNLKEYNLV [Gq peptide]
effect on FRET of β2AR–Gs peptide sensor [9]: enhanced FRET | effect on FRET of β2AR–Gs peptide sensor [10]: did not enhance FRET | Donor-only sample (tau donor) Lifetime (ns) [11, 15]: 2.34 ns and 2.38 ns and 2.28 ns and 2.27 ns | FRET sample (tau FRET) Lifetime (ns) [11, 15]: 2.42 ns (2×) and 2.32 ns and 2.40 ns | effect on FRET of the ICL3 FRET sensor ([11]; Gq peptide alone): increased FRET to a similar level to the agonist alone | effect on FRET of the ICL3 FRET sensor ([11]; combination of agonist and Gq peptide): decreased FRET | effect on agonist binding affinity (β2AR [12]): increased agonist binding affinity | effect on agonist binding affinity (β2AR [13]): this effect was lost

GPR27
Specific Peptide Signal, Gq (Average) (PTH1R–Gq peptide): 0.14 | Specific Peptide Signal, Gs (Average) (PTH1R–Gs peptide): 0.79

Gamma-synuclein
Specific Peptide Signal, Gs (Average) (PTH1R–Gs peptide): 0.39

HRH1
Specific Peptide Signal, Gq (Average) (PTH1R–Gq peptide): -0.09 | Specific Peptide Signal, Gs (Average) (PTH1R–Gs peptide): 0.66

HVQ-AAA
cAMP (Relative to Wild-Type Average) (β2AR [14]; Average): 1.18 | cAMP (Relative to Wild-Type Average) (β2AR [14]; [16]): 0.92 and 1.04 and 1.40 and 1.30 and 1.16 and 1.28

Humanin
Specific Peptide Signal, Gs (Average) (PTH1R–Gs peptide): 0.41

N-Biotin-DTENIRFVFAAVKDTILQLNLKEYNLV [Bio-Qpep]
Specific mCerulean bound (β2AR–mCerulean): 0.09 and 0.14 and 0.15 and 0.12

NTS1
Specific Peptide Signal, Gq (Average) (PTH1R–Gq peptide): 0.14 | Specific Peptide Signal, Gs (Average) (PTH1R–Gs peptide): 0.48

Oregon Green
Fluorescence lifetime, Labeled Receptor, individual replicates 1-3 (β2AR L258Azi (Δ350-413)): 2.34 and 2.19 and 2.32 | Fluorescence lifetime, Labeled Receptor, Average (β2AR L258Azi (Δ350-413); average of 3): 2.28

QDG-AAA
cAMP (Relative to Wild-Type Average) (β2AR [14]; Average): 1.60 | cAMP (Relative to Wild-Type Average) (β2AR [14]; [16]): 1.35 and 1.62 and 1.56 and 1.90 and 1.60 and 1.57
